Source: US6024955A, “Peptides and monoclonal antibodies” (Toagosei Co. Ltd., priority 1995, dated 2000)

How the values were obtained:
[1] = test system: Human fibrosarcoma (HT-1080); experiment: Antitumor test, joint use with an existing carcinostatic, HT-1080 in nude mice; conditions: mitomycin alone, 6 mg/kg, tail vein
Description: Human fibrosarcoma (HT-1080) subcutaneously subcultured in nude mice was cut out in a section of about 2 mm square and inoculated subcutaneously into 6 nude mice of another group using a trocar. On the next day of the inoculation, the existing carcinostatic mitomycin (3 mg/kg) or cisplatin (5 mg/kg) was injected into the tail vein once, and the monoclonal antibody of the invention was injected into the tail vein at a dose of 12.5 μg/mouse every 4 days from the next day of the transplantation.
In those groups which received an existing carcinostatic alone, 3 or 6 mg/kg of mitomycin or 5 or 10 mg/kg of cisplatin was administered in a similar manner as employed in the joint administration groups (i.e. every 4 days into the tail vein).
In the group which received the monoclonal antibody alone, 12.5 μg/mouse of the monoclonal antibody was administered similarly (i.e. every 4 days into the tail vein).
The tumor volume of each mouse was calculated by measuring the diameter of the tumor with the passage of time. At the same time, changes in body weight were also observed.

[2] = test system: MV833 antibody; conditions: 20 μM peptide solution coated on plate
Description: The 67 peptides synthesized by the above procedures correspond to the entire region of human VPF 121. Therefore, by examining the reactivity of the 67 peptides with MV833 antibody, it is possible to identify the portion of VPF with which MV833 reacts. Then, the reactivity of the 67 peptides with MV833 antibody was examined by an enzyme immunoassay. Briefly, 20 μM peptide solutions each containing one of the 67 peptides were added to a 96-well NOS plate (Coaster) and left at room temperature for 2 hours. After each well was washed with 0.1% BSA-PBS 3 times, 2% BSA-PBS was added thereto and left at room temperature for 1 hour. After the removal of 2% BSA-PBS, MV833 (in 1% BSA-PBS solution) was added to the plate and left at room temperature for 1 hour. After each well was washed with 0.1% BSA-PBS 6 times, peroxidase-labelled sheep anti-mouse IgG (Amersham) (in 0.1% BSA-PBS) was added thereto and left at room temperature for 1 hour. After each well was washed with 0.1% BSA-PBS 6 times, 0.2 M Tris-citrate buffer (pH 5.2) containing 8.3 mg/ml orthophenylenediamine dihydrochloride and 0.01% hydrogen peroxide was added for coloring. The reaction was terminated by adding 2 N sulfuric acid and then absorbance (OD490/650) was measured.

Molecule	antitumor activity (tumor volume, FIG. 3) [1]	changes in body weight (FIG. 4) [1]	reactivity with MV833 antibody (absorbance OD490/650, FIG. 1) [2]
CO[C@@]12[C@H](COC(N)=O)C3=C(C(=O)C(C)=C(N)C3=O)N1C[C@@H]1N[C@@H]12 [mitomycin]	strong antitumor activity was observed	loss in body weight was also observed	
FKPSCVPLMRCG [Peptide 32]			reacted strongly
KCECRPKKDRAR [Peptide 63]			reacted strongly
KPSCVPLMRCGG [Peptide 33]			reacted strongly
SFLQHNKCECRP [Peptide 60]			reacted strongly
YIFKPSCVPLMR [Peptide 31]			reacted strongly
